According to ChEMBL document CHEMBL4725228, “An aza-nucleoside, fragment-like inhibitor of the DNA repair enzyme alkyladenine glycosylase (AAG)” (Bioorg Med Chem, 2020):
Activity calls are given as the source filed them. The calls are words filed in the database; no cut-off is given here.

Biological target: DNA-3-methyladenine glycosylase (Homo sapiens, UniProt P29372)
Assay: Inhibition of human AAG using HXO2/Loop01 oligonucleotide as substrate incubated for 2 hrs by colorimetric based microplate assay

Chain of DNA-3-methyladenine glycosylase (P29372 whole entry): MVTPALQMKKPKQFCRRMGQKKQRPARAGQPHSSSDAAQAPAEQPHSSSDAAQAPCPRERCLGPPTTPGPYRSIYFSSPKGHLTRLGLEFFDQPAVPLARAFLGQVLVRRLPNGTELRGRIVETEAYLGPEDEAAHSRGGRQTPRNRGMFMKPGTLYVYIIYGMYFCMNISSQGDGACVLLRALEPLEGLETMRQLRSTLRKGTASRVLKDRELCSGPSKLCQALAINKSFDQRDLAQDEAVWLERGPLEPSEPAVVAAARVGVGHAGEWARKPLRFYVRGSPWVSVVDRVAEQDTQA

Row | inhibition | IC50 [µM] | Structure (SMILES)
1 | Active |  | OC[C@H]1CN(Cc2ccncc2)C[C@@H]1O
2 | Active |  | OC[C@H]1CN(Cc2ccccn2)C[C@@H]1O
3 |  | 157 | OC[C@H]1CN(Cc2c[nH]cn2)C[C@@H]1O
4 | Active |  | OC[C@H]1CN(Cc2ncc[nH]2)C[C@@H]1O

Row | Structure (SMILES) | inhibition | IC50 [µM]
5 | OC[C@H]1CN(Cc2cccnc2)C[C@@H]1O | Active | 
